Data from PubChem BioAssay AID1259411 (Chemical Carcinogenesis Research Information System (CCRIS), 2018).
Calls of active or inactive are those of the source. No rule for the calls is given here.

Test system: rodent carcinogenicity bioassays, tumor incidence
Experiment: CCRIS carcinogenicity studies
How it was run: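 Archive of carcinogenicity, mutagenicity, tumor promotion and tumor inhibition results drawn from journals, NCI reports and other sources, expert-reviewed; covers 1985-2011 and is no longer updated.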

`NNC(=O)c1cccnc1` was tested, and the carcinogen call (Species: MOUSE, Strain/Sex: SWISS/FEMALE, Route: ORAL, Dose: 0, 0.125% IN DRINKING WATER FOR LIFE, STUDY DURATION: 100-110 WK, Dose: 0, 0.125% IN DRINKING WATER FOR LIFE, STUDY DURATION: 100-110 WK, Tumor Site: Type of Lesion: LUNG: ADENOMA, ADENOMA OR ADENOCARCINOMA) was “active; positive” and the carcinogen call (Species: MOUSE, Strain/Sex: SWISS/MALE, Route: ORAL, Dose: 0, 0.125% IN DRINKING WATER FOR LIFE, STUDY DURATION: 90-100 WK, Dose: 0, 0.125% IN DRINKING WATER FOR LIFE, STUDY DURATION: 90-100 WK, Tumor Site: Type of Lesion: LUNG: ADENOMA OR ADENOCARCINOMA) was “active; positive”.

With `O=[N+]([O-])c1cc([N+](=O)[O-])c2ccc(S(=O)(=O)O)cc2c1O` the carcinogen call (Species: MOUSE, Strain/Sex: SWISS-WEBSTER/FEMALE, Route: DERMAL, Dose: 0, 1% IN 0.1 ML DISTILLED WATER 1/WK FOR 18 MO (STUDY DURATION: 18 MO)) was “inactive; negative” and the carcinogen call (Species: MOUSE, Strain/Sex: SWISS-WEBSTER/MALE, Route: DERMAL, Dose: 0, 1% IN 0.1 ML DISTILLED WATER 1/WK FOR 18 MO (STUDY DURATION: 18 MO)) was “inactive; negative”.

With `ClCc1cccnc1` the carcinogen call (Species: MOUSE, Strain/Sex: B6C3F1/FEMALE, Route: GAVAGE, Dose: 0, 100, 200 MG/KG, Dose: 0, 100, 200 MG/KG, Tumor Site: Type of Lesion: STOMACH: SQUAMOUS CELL PAPILLOMA, CARCINOMA) was “active; positive”, the carcinogen call (Species: MOUSE, Strain/Sex: B6C3F1/MALE, Route: GAVAGE, Dose: 0, 100, 200 MG/KG, Dose: 0, 100, 200 MG/KG, Tumor Site: Type of Lesion: STOMACH: SQUAMOUS CELL PAPILLOMA, CARCINOMA) was “active; positive” and the carcinogen call (Species: RAT, Strain/Sex: F344/FEMALE, Route: GAVAGE, Dose: 0, 75, 150 MG/KG FOR 83 WK (STUDY DURATION: 104 WK), Dose: 0, 75, 150 MG/KG FOR 83 WK (STUDY DURATION: 104 WK), Tumor Site: Type of Lesion: FORESTOMACH: SQUAMOUS CELL PAPILLOMA) was “equivocal”. The carcinogen call (Species: RAT, Strain/Sex: F344/MALE, Route: GAVAGE, Dose: 0, 75, 150 MG/KG, Dose: 0, 75, 150 MG/KG, Tumor Site: Type of Lesion: STOMACH: SQUAMOUS CELL PAPILLOMA OR CARCINOMA) was “active; positive”.

For `Cc1ccc(S(=O)(=O)O)cc1C`, the carcinogen call (Species: MOUSE, Strain/Sex: B6C3F1/FEMALE, Route: DERMAL, Dose: 0, 182, 364, 727 MG/KG IN 50% ETHANOL 5D/WK FOR 105 WK (STUDY DURATION: 105 WK), Dose: 0, 182, 364, 727 MG/KG IN 50% ETHANOL 5D/WK FOR 105 WK (STUDY DURATION: 105 WK)) was “inactive; negative”, the carcinogen call (Species: MOUSE, Strain/Sex: B6C3F1/MALE, Route: DERMAL, Dose: 0, 182, 364, 727 MG/KG IN 50% ETHANOL 5D/WK FOR 104 WK (STUDY DURATION: 104 WK), Dose: 0, 182, 364, 727 MG/KG IN 50% ETHANOL 5D/WK FOR 104 WK (STUDY DURATION: 104 WK)) was “inactive; negative” and the carcinogen call (Species: RAT, Strain/Sex: F344/FEMALE, Route: DERMAL, Dose: 0, 60, 120, 240 MG/KG IN 50% ETHANOL 5 D/WK FOR 104 WK (STUDY DURATION: 104 WK), Dose: 0, 60, 120, 240 MG/KG IN 50% ETHANOL 5 D/WK FOR 104 WK (STUDY DURATION: 104 WK)) was “inactive; negative”. The carcinogen call (Species: RAT, Strain/Sex: F344/MALE, Route: DERMAL, Dose: 0, 60, 120, 240 MG/KG IN 50% ETHANOL 5D/WK FOR 104 WK (STUDY DURATION: 104 WK), Dose: 0, 60, 120, 240 MG/KG IN 50% ETHANOL 5D/WK FOR 104 WK (STUDY DURATION: 104 WK)) was “inactive; negative”.

`CCCN(COC(C)=O)N=O` was tested, and the carcinogen call (Species: RAT, Strain/Sex: F344/FEMALE, Route: SUBCUTANEOUS, Dose: 6.1 MG/KG 1/WK FOR 10 WK, Tumor Site: Type of Lesion: INJECTION SITE: MALIGNANT FIBROUS HISTIOCYTOMA, LUNG: ADENOMA, ADENOCARCINOMA OR SQUAMOUS CELL CARCINOMA, THYROID GLAND:, Tumor Site: Type of Lesion: INJECTION SITE: MALIGNANT FIBROUS HISTIOCYTOMA, LUNG: ADENOMA, ADENOCARCINOMA OR SQUAMOUS CELL CARCINOMA, THYROID GLAND:) was “active; positive” and the carcinogen call (Species: RAT, Strain/Sex: F344/MALE, Route: SUBCUTANEOUS, Dose: 6.1 MG/KG 1/WK FOR 10 WK, Tumor Site: Type of Lesion: INJECTION SITE: MALIGNANT FIBROUS HISTIOCYTOMA, LUNG: ADENOMA, ADENOCARCINOMA OR SQUAMOUS CELL CARCINOMA) was “active; positive”.

In the case of `CCC(C)[N+](=O)[O-]` (centres undefined), the carcinogen call (Species: RAT, Strain/Sex: F344/MALE, Route: GAVAGE, Dose: 0, 2 MMOL/KG BW 1/WK FOR 50 WK (STUDY DURATION: 83 WK), Tumor Site: Type of Lesion: LIVER: CARCINOMA) is reported as “active; positive”.

`NC(=O)OC1CO1` (centres undefined) was tested, and the carcinogen call (Species: MOUSE, Strain/Sex: B6C3F1/MALE, Route: INTRAPERITONEAL, Dose: 0, 0.5, 1.25, 2.5 UG/G BW IN 10 µL TRIOCTANOIN ONCE (STUDY DURATION: 9 MO), Dose: 0, 0.5, 1.25, 2.5 UG/G BW IN 10 µL TRIOCTANOIN ONCE (STUDY DURATION: 9 MO), Tumor Site: Type of Lesion: LIVER: HEPATOMA) was “active; positive”, the carcinogen call (Species: MOUSE, Strain/Sex: CD-1/FEMALE, Route: DERMAL, Dose: 0, 11.5 UMOL IN WEEKS 1 AND 2 THEN 5.7 UMOL IN WEEKS 3 AND 4 FOLLOWED BY 3.8 UMOL/WK FOR 28 WK (STUDY DURATION: 42 WK), Tumor Site: Type of Lesion: SKIN: PAPILLOMA, CARCINOMA) was “active; positive” and the carcinogen call (Species: MOUSE, Strain/Sex: STRAIN-A/FEMALE, Route: INTRAPERITONEAL, Dose: 0, 34, 68 NMOL/G BW IN 5 µL TRIOCTANOIN ONCE (STUDY DURATION: 6 MO), Dose: 0, 34, 68 NMOL/G BW IN 5 µL TRIOCTANOIN ONCE (STUDY DURATION: 6 MO), Tumor Site: Type of Lesion: LUNG: ADENOMA) was “active; positive”. For the same molecule, the carcinogen call (Species: RAT, Strain/Sex: SPRAGUE-DAWLEY/FEMALE, Route: INTRAMUSCULAR, Dose: 0, 1.15, 2.30 UMOL IN 0.25 ML TRIOCTANOIN 1/WK FOR 10 WK (STUDY DURATION: 18 MO), Dose: 0, 1.15, 2.30 UMOL IN 0.25 ML TRIOCTANOIN 1/WK FOR 10 WK (STUDY DURATION: 18 MO), Tumor Site: Type of Lesion: INJECTION SITE: SARCOMA, MAMMARY GLAND: TUMOR) was “active; positive”.

For `O=[N+]([O-])c1cccc2c1-c1cccc3c([N+](=O)[O-])ccc-2c13`, the carcinogen call (Species: RAT, Strain/Sex: F344/DUCRJ/MALE, Route: PULMONARY IMPLANT, Dose: 0, 0.2 MG AS A SUSPENSION IN EQUAL VOL OF BEESWAX AND TRICAPRYLIN IMPLANTED IN LEFT LUNG (STUDY DURATION: 70 WK), Tumor Site: Type of Lesion: LUNG: TUMOR) was “active; positive”, the carcinogen call (Species: RAT, Strain/Sex: F344/MALE, Route: LUNG IMPLANT, Dose: 0, 200 UG IN BEESWAX/TRICAPRYLIN INTO LOWER LEFT LUNG ONCE (STUDY DURATION: 100 WK), Tumor Site: Type of Lesion: LUNG: SQUAMOUS CELL CARCINOMA) was “active; positive” and the carcinogen call (Species: RAT, Strain/Sex: F344/MALE, Route: PULMONARY IMPLANT, Dose: 0, 200 UG IN 50 µL BEESWAX/TRICAPRYLIN IMPLANTED FOR UP TO 100 WK (STUDY DURATION: 100 WK), Tumor Site: Type of Lesion: LUNG: TUMOR) was “active; positive”.

In the case of `COC(=O)N(C(=O)N1CO[C@@]2(C(=O)OC)Cc3cc(Cl)ccc3C2=N1)c1ccc(OC(F)(F)F)cc1`, the carcinogen call (Species: Mouse, Strain/Sex: Crl:CD-1(ICR)BR/Female (70/Group), Route: Oral, Dose: 0, 20, 100, 125/150/200 ppm for 18 mo, study duration 18 mo, Dose: 0, 20, 100, 125/150/200 ppm for 18 mo, study duration 18 mo) is reported as “inactive; negative” and the carcinogen call (Species: Mouse, Strain/Sex: Crl:CD-1(ICR)BR/Male (70/Group), Route: Oral, Dose: 0, 20, 100, 125/150/200 ppm for 18 mo, study duration 18 mo, Dose: 0, 20, 100, 125/150/200 ppm for 18 mo, study duration 18 mo) is reported as “inactive; negative”.

For `O=[N+]([O-])c1ccc(Cl)cc1`, the carcinogen call (Species: MOUSE, Strain/Sex: CD-1/MALE,FEMALE, Route: ORAL, Tumor Site: Type of Lesion: BLOOD VESSELS) was “active; positive”.

For `COC(=O)c1cc(Oc2ccc(Cl)cc2Cl)ccc1[N+](=O)[O-]`, the carcinogen call (Species: Mouse, Strain/Sex: B6C3F1/Female (60/sex/group), Route: Oral, Dose: 0, 50, 200, 1000 ppm in feed for 24 mo, Dose: 0, 50, 200, 1000 ppm in feed for 24 mo) was “inactive; negative; purity 98.3%”, the carcinogen call (Species: Mouse, Strain/Sex: B6C3F1/Male (60/sex/group), Route: Oral, Dose: 0, 50, 200, 1000 ppm in feed for 24 mo, Dose: 0, 50, 200, 1000 ppm in feed for 24 mo, Tumor Site: Type of Lesion: Liver: Significant increase in hepatic adenomas and carcinomas at highest dose) was “active; positive; purity 98.3%” and the carcinogen call (Species: Rat, Strain/Sex: Sprague-Dawley/Female (50/sex/group), Route: Oral, Dose: 0, 500, 1580, 5000 ppm in feed for 104 wk, Dose: 0, 500, 1580, 5000 ppm in feed for 104 wk) was “inactive; negative; purity 98%”. For the same molecule, the carcinogen call (Species: Rat, Strain/Sex: Sprague-Dawley/Male (50/sex/group), Route: Oral, Dose: 0, 500, 1580, 5000 ppm in feed for 104 wk, Dose: 0, 500, 1580, 5000 ppm in feed for 104 wk) was “inactive; negative; purity 98%”.
